Our source for the IC50 values is patent EP1178967B1, “QUINOLINE DERIVATIVES AS INHIBITORS OF MEK ENZYMES” (AstraZeneca AB, priority 1999, dated 2000).

Each structure is given as a SMILES string.

For this test, the target named is human p45MEK1 (GST-MEK) (Homo sapiens, UniProt Q02750). The test can be described thus: Assay for inhibitors of the MAP kinase pathway (coupled GST-MEK / GST-MAPK / MBP 33P incorporation assay). It is filed as biochemical. The settings on record: GST-MEK activated by c-raf, 60min at room temperature with inhibitor, MBP substrate. As to the method: To evaluate inhibitors of the MAPK pathway a coupled assay was carried out which measures phosphorylation of serine/threonine residues present in the substrate in the presence or absence of inhibitor. Recombinant glutathione S-transferase fusion protein containing human p45MEK1 (GST-MEK) was activated by c-raf (Sf9 insect cell lysate from triple baculoviral infection with c-raf/ras/lck) and used for the assay. Active GST-MEK was first used to activate a recombinant glutathione S-transferase fusion protein containing p44MAP kinase (GST-MAPK) in the presence of ATP and Mg^2+ for 60min at room temperature in the presence or absence of potential inhibitors. The activated GST-MAPK was then incubated with myelin basic protein (MBP) as substrate for 10min at room temperature in the presence of ATP, Mg^2+ and ^33P-ATP. The reaction was stopped by addition of 20% v/v phosphoric acid. Incorporation of ^33P into the myelin basic protein was determined by capture of the substrate on a filter mat, washing and counting using scintillation methods. The extent of inhibition was determined by comparison with untreated controls.
The final assay solution contained 10mM Tris, pH 7.5, 0.05mM EGTA, 8.33µM [γ^33P]ATP, 8.33mM Mg(OAc)2, 0.5mM sodium orthovanadate, 0.05%w/v BSA, 6.5ng GST-MEK, 1µg GST-MAPK and 16.5µg MBP in a reaction volume of 60µl.

human p45MEK1 (GST-MEK), sequence (Q02750 whole entry, the tested form may be a part): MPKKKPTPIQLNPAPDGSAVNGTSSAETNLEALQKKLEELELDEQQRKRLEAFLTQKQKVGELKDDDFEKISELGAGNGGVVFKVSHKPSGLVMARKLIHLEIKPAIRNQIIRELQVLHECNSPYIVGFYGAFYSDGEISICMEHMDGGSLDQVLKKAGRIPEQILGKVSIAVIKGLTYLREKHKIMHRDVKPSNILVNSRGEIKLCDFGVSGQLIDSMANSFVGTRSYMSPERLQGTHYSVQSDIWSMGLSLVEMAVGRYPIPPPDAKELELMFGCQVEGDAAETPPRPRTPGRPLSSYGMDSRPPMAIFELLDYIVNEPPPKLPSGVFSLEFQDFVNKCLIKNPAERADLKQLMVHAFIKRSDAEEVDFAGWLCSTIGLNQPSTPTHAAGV

As for `COc1cc2ncc(C#N)c(Nc3ccc(OCC4OCCO4)cc3)c2cc1OC` [Compound No 252], the IC50 – broadly, the concentration that inhibits the measured activity by half – worked out at 150 nM.
